Assay results reported in ChEMBL document CHEMBL1122152, “Synthesis of pseudo cofactor analogues as potential inhibitors of the folate enzymes” (J Med Chem, 1982).
Several values for one entry are separate records, joined by “and”; a condition that tells them apart may be missing. Identical values can stand only once.

Legend:
Sus scrofa [1] = species: Sus scrofa; experiment: Percent inhibition was measured against formyl tetrahydrofolate synthase (porcine liver) enzyme.; settings: concentration not given here
[2] = target: T1, C-1-tetrahydrofolate synthase, cytoplasmic (Homo sapiens) (UniProt P11586); experiment: Percent inhibition was measured against 5,10-Methylene Tetrahydrofolate Cyclohydrolase (porcine liver) enzyme.; settings: Sus scrofa; target entry is the homologue from another species; concentration not given here
T1 sequence (whole entry): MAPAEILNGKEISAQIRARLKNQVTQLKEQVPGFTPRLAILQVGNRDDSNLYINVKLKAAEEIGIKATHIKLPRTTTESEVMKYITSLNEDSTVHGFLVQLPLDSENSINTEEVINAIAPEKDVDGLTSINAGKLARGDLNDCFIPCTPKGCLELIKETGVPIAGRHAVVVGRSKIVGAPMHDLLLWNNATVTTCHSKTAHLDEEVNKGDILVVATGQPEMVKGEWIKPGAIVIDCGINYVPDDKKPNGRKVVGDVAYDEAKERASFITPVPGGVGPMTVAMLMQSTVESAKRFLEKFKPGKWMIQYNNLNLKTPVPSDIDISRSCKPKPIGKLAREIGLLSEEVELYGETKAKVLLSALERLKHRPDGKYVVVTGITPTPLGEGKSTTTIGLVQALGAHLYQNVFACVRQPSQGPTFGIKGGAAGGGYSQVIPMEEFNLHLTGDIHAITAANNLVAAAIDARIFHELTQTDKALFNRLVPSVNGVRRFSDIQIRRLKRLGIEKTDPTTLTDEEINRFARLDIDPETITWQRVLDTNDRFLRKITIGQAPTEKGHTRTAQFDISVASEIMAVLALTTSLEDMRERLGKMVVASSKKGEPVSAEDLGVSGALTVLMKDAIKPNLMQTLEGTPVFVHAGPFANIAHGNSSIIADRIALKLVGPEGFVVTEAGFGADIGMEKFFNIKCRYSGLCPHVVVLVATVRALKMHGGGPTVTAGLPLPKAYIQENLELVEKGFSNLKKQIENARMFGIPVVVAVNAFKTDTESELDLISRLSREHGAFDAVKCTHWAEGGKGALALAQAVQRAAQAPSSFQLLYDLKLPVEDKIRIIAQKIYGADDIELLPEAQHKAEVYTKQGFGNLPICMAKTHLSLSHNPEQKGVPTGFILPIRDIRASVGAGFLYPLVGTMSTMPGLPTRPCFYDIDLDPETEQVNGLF

Columba livia [3] = experiment: Percent inhibition was measured against 5-amino-4-imidazolecarboxamide ribotide transformylase(pigeon liver) enzyme.; settings: concentration not given here
Sus scrofa [4] = species: Sus scrofa; experiment: Percent inhibition was measured against 5,10-Methylene Tetrahydrofolate Reductase (porcine kidney) enzyme.; settings: concentration not given here
[5] = target: T1, C-1-tetrahydrofolate synthase, cytoplasmic (Homo sapiens); experiment: Percent inhibition was measured against 5,10-Methylene Tetrahydrofolate Cyclohydrolase (A,porcine liver) enzyme.; settings: Sus scrofa; target entry is the homologue from another species; concentration not given here
Sus scrofa [6] = species: Sus scrofa; experiment: Percent inhibition was measured against methionine synthetase (porcine kidney)enzyme.; settings: concentration not given here
Columba livia [7] = experiment: Percent inhibition was measured against glycinamide ribotide transformylase (pigeon liver) enzyme.; settings: concentration not given here
[8] = target: Dihydrofolate reductase (Bos taurus) (UniProt P00376); experiment: Percent inhibition was measured against Dihydrofolate reductase (bovine liver) enzyme at 10E-4 M inhibitory concentration
[9] = target: Thymidylate synthase (Homo sapiens) (UniProt P04818); experiment: Percent inhibition was measured against Thymidylate synthase (calf thymus) enzyme; settings: concentration not given here
Sus scrofa [10] = species: Sus scrofa; experiment: Percent inhibition was measured against Serine transhydroxymethylase (porcine liver) enzyme. at 10E-4 M inhibitory concentration
Sus scrofa [11] = species: Sus scrofa; experiment: Percent inhibition was measured against methionine synthetase (porcine kidney)enzyme at 10E-4 M inhibitory concentration
Columba livia [12] = experiment: Percent inhibition was measured against glycinamide ribotide transformylase (pigeon liver) enzyme at 10E-4 M inhibitory concentration
Sus scrofa [13] = species: Sus scrofa; experiment: Percent inhibition was measured against 5,10-Methylene Tetrahydrofolate Reductase (porcine kidney) enzyme at 10E-4 M inhibitory concentration
[14] = target: T1, C-1-tetrahydrofolate synthase, cytoplasmic (Homo sapiens); experiment: (§1) Percent inhibition was measured against 5,10-Methylene Tetrahydrofolate Cyclohydrolase (porcine liver) enzyme at 10E-4 M inhibitory concentration; settings: Sus scrofa; target entry is the homologue from another species
Columba livia [15] = experiment: Percent inhibition was measured against 5-amino-4-imidazolecarboxamide ribotide transformylase(pigeon liver) enzyme at 10E-4 M inhibitory concentration
Sus scrofa [16] = species: Sus scrofa; experiment: Percent inhibition was measured against formyl tetrahydrofolate synthase (porcine liver) enzyme at 10E-4 M inhibitory concentration
[17] = target: T1, C-1-tetrahydrofolate synthase, cytoplasmic (Homo sapiens); experiment: as §1; settings: Sus scrofa; target entry is the homologue from another species; remark: listed apart in the source
[18] = Percent inhibition was measured against 5,10-Methylene Tetrahydrofolate Cyclohydrolase (L1210 tumor tissue) enzyme at 10E-6 M inhibitory concentration
Thymidylate synthase = experiment: Percent inhibition was measured against Thymidylate synthase (calf thymus) enzyme at 10E-4 M inhibitory concentration
[19] = test system: formyltetrahydrofolate synthetase (Mus musculus); experiment: Percent inhibition was measured against formyl tetrahydrofolate synthase (L1210 tumor tissue) enzyme at 10E-4 M inhibitory concentration
[20] = target: T1, C-1-tetrahydrofolate synthase, cytoplasmic (Homo sapiens); experiment: Percent inhibition was measured against 5,10-Methylene Tetrahydrofolate Cyclohydrolase (L1210 tumor tissue) enzyme at 10E-4 M inhibitory concentration
Columba livia [21] = experiment: Percent inhibition was measured against 5-amino-4-imidazolecarboxamide ribotide transformylase(pigeon liver) enzyme at 10E-5 M inhibitory concentration
[22] = target: T1, C-1-tetrahydrofolate synthase, cytoplasmic (Homo sapiens); experiment: Percent inhibition was measured against 5,10-Methylene Tetrahydrofolate Cyclohydrolase (L1210 tumor tissue) enzyme at 10E-6 M inhibitory concentration; settings: Sus scrofa
[23] = target: T1, C-1-tetrahydrofolate synthase, cytoplasmic (Homo sapiens); experiment: Percent inhibition was measured against 5,10-Methylene Tetrahydrofolate Cyclohydrolase (porcine liver) enzyme at 10E-5 M inhibitory concentration; settings: Sus scrofa; target entry is the homologue from another species
Sus scrofa [24] = species: Sus scrofa; experiment: as §1
[25] = target: T1, C-1-tetrahydrofolate synthase, cytoplasmic (Homo sapiens); experiment: Percent inhibition was measured against 5,10-Methylene Tetrahydrofolate Cyclohydrolase (porcine liver) enzyme at 10E-6 M inhibitory concentration; settings: Sus scrofa; target entry is the homologue from another species
[26] = target: T1, C-1-tetrahydrofolate synthase, cytoplasmic (Homo sapiens); experiment: Percent inhibition was measured against 5,10-Methylene Tetrahydrofolate Cyclohydrolase (porcine liver) enzyme at 10E-7 M inhibitory concentration; settings: Sus scrofa; target entry is the homologue from another species
[27] = target: T1, C-1-tetrahydrofolate synthase, cytoplasmic (Homo sapiens); experiment: Percent inhibition was measured against 5,10-Methylene Tetrahydrofolate Cyclohydrolase (L1210 tumor tissue) enzyme at 10E-5 M inhibitory concentration
Sus scrofa [28] = species: Sus scrofa; experiment: Percent inhibition was measured against Serine transhydroxymethylase (porcine liver) enzyme at 10E-4 M inhibitory concentration

Sequence of Dihydrofolate reductase (Bos taurus) (P00376 whole entry, looked up): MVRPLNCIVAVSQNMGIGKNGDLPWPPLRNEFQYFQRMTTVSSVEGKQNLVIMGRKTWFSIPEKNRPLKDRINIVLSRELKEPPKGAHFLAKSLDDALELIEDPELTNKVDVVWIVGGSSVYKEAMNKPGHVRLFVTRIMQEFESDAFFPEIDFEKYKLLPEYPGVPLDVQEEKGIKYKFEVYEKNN
Sequence of Thymidylate synthase (Homo sapiens) (P04818 2-313 limits assumed): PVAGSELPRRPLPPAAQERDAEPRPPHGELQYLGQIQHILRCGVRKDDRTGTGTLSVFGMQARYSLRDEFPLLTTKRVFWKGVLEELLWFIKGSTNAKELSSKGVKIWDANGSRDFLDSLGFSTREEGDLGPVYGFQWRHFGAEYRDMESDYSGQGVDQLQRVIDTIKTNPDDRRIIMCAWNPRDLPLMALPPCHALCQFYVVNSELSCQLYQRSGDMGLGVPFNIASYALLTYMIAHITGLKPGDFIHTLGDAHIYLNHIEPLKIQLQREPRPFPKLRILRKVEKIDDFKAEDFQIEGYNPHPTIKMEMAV

Row | Compound | inhibition [8] [%] | inhibition (Sus scrofa [10]) [%] | inhibition (Sus scrofa [11]) [%] | inhibition (Columba livia [12]) [%] | inhibition (Sus scrofa [13]) [%] | inhibition (Columba livia [15]) [%] | inhibition (Sus scrofa [16]) [%] | inhibition [17] | inhibition (Thymidylate synthase) [%] | inhibition [19] [%] | inhibition [20] [%] | inhibition (Columba livia [21]) [%] | inhibition [22] [%] | inhibition [25] [%] | other results
1 | Nc1nc2c(c(=O)[nH]1)N1C=[N+](c3ccc(C(=O)NC(CCC(=O)O)C(=O)O)cc3)CC1CN2 (stereo not drawn) | 15 | 10 |  |  |  |  |  |  |  |  |  |  |  |  | inhibition (Sus scrofa [1]): 0%; inhibition [2]: 0%; inhibition (Columba livia [3]): 19%; inhibition (Sus scrofa [4]): 40%; inhibition [5]: 9%; inhibition (Sus scrofa [6]): 22%; inhibition (Columba livia [7]): 0%; inhibition [9]: 0%
2 | N=C1N(c2ccc(C(=O)NC(CCC(=O)O)C(=O)O)cc2)CC2CNc3nc(N)[nH]c(=O)c3N12 (stereo not drawn) | 0 | 30 | 4 | 0 | 0 | 13 | 21 | 24% | 0 | 12 | 24 |  |  |  | inhibition [14]: 61%; inhibition [18]: 43%
3 | Nc1nc2c(c(=O)[nH]1)N1CCN(c3ccc(C(=O)NC(CCC(=O)O)C(=O)O)cc3)CC1CN2 (stereo not drawn) | 13 | 10 | 10 | 0 | 20 | 33 | 0 | 3% and 0% | 16 |  |  |  |  |  | 
4 | Nc1nc2c(c(=O)[nH]1)N1C(=S)N(c3ccc(C(=O)NC(CCC(=O)O)C(=O)O)cc3)CC1CN2 (stereo not drawn) | 30 | 0 | 5 | 11 | 55 |  |  |  | 8 | 13 | 12 | 37 | 50 | 24 | inhibition [23]: 27%; inhibition (Sus scrofa [24]): 24%
5 | Nc1nc2c(c(=O)[nH]1)N1C(=O)N(c3ccc(C(=O)NC(CCC(=O)O)C(=O)O)cc3)CC1CN2 (stereo not drawn) | 16 |  | 2 | 0 | 41 |  | 15 |  | 25 | 16 |  | 0 | 48 | 24 | inhibition [26]: 48%; inhibition [27]: 51%; inhibition (Sus scrofa [28]): 40%
